Data: paper PMC7279216, “Identification of Inhibitors to Trypanosoma cruzi Sirtuins Based on Compounds Developed to Human Enzymes” (International Journal of Molecular Sciences, 2020)
Where two headings read alike, the source gives them in different places.

How the values were obtained:
T. cruzi Y H10 strain [1] = experiment: High content assay (HCA), T. cruzi in vitro infection of U2OS cells; format: cell-based, Trypanosoma cruzi; conditions: for EC50: read-out: EC50 Value (reduces 50% of infected cells number); for SI (selectivity index = CC50/EC50): U2OS CC50 / T. cruzi EC50
[2] = Host cell cytotoxicity in high content assay; conditions: human
SIRT1 = system: SIRT1; parameters: method as in ref 22, 27 and unpublished results; conditions: 27 and unpublished results, cited from earlier work; for IC50: read-out: IC50 against human SIRT1
TcSir2rp3 = TcSir2rp3 (Trypanosoma cruzi, UniProt Q4E5B9); experiment: biochemical; conditions: for inhibition at 5 µM: read-out: % of inhibition of TcSir2rp3 deacetylase activity
Sequence of TcSir2rp3 (Q4E5B9 entry or part of it): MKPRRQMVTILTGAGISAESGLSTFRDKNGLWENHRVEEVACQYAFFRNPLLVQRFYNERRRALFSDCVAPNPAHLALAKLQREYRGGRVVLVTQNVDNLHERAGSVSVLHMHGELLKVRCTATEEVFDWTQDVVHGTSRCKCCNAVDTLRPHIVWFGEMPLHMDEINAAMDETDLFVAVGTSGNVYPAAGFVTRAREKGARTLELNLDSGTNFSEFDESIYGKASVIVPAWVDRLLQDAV

SIRT2 = system: SIRT2; parameters: method as in ref 22, 27 and unpublished results; conditions: 27 and unpublished results, cited from earlier work; for IC50: read-out: IC50 against human SIRT2
T. cruzi Y H10 strain [3] = experiment: Combinatory high content assay of SIRTi with BZN, T. cruzi in vitro infection; format: cell-based, Trypanosoma cruzi; conditions: for combinatory effect with benznidazole, overall: combination with BZN; for trypanocidal activity of SIRTi+BZN compared to BZN alone / trypanocidal activity of SIRTi+BZN compared to SIRTi alone: combination with BZN at constant EC50 ratios
TcSir2rp1 = TcSir2rp1 (Trypanosoma cruzi, UniProt Q4DP02); experiment: biochemical; format: biochemical; conditions: for inhibition of TcSir2rp1 deacetylase activity: 5 µM
Sequence of TcSir2rp1 (Q4DP02 entry or part of it): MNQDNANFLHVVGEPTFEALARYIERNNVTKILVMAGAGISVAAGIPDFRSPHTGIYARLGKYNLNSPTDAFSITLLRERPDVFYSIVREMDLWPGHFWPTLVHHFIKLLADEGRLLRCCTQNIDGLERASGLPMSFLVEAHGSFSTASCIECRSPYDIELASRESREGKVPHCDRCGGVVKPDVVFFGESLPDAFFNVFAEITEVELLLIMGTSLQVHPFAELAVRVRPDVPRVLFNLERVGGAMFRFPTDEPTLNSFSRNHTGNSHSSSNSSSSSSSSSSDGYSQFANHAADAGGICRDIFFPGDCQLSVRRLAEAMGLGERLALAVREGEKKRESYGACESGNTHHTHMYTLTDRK

SIRT5 = system: SIRT5; parameters: method as in ref 27 and unpublished results; conditions: ref 27 and unpublished results; cited from earlier work
[4] = U2OS cells infected with T. cruzi Y H10 trypomastigotes
[5] = Trypanosoma cruzi, U2OS, 96 h, U2OS cells infected with T. cruzi, 96 hours incubation
[6] = Ratio 1, EC50 ratio 1/32 (BZN 0.8 µM)
[7] = Ratio 2, EC50 ratio 1/16 (BZN 1.5 µM)
[8] = Ratio 3, EC50 ratio 1/8 (BZN 3 µM)
[9] = Ratio 4, EC50 ratio 1/4 (BZN 6 µM)
[10] = Ratio 5, EC50 ratio 1/2 (BZN 12 µM)
[11] = Ratio 6, EC50 ratio 1 (BZN 24 µM)
[12] = Ratio 7, EC50 ratio 2 (BZN 48 µM)

Row | SMILES | EC50 (T. cruzi Y H10 strain [1]; Trypanosoma cruzi, U2OS, 96 h) | SI (selectivity index = CC50/EC50) (T. cruzi Y H10 strain [1]) | CC50 at 96 h [2, 4] | EC50 (T. cruzi Y H10 strain [1]; [5]) | IC50 (SIRT1) | inhibition at 5 µM (TcSir2rp3) | IC50 (TcSir2rp3; read-out: TcSir2rp3 IC50 ± SD) | IC50 (SIRT2) | combinatory effect with benznidazole, overall (T. cruzi Y H10 strain [3]) | trypanocidal activity of SIRTi+BZN compared to BZN alone (T. cruzi Y H10 strain [3]) | IC50 against human SIRT2 (SIRT2) | inhibition of TcSir2rp1 deacetylase activity (TcSir2rp1) | other results
1 | O=C(Cn1ccnc1[N+](=O)[O-])NCc1ccccc1 [BZN, benznidazole, reference compound] | 1.96 µM | > 102 | > 200 µM | – | – | – | – | – | – | – | – | – | –
2 | CC(CSc1cccc(/N=C/c2c(O)ccc3ccccc23)c1)c1ccccc1 (stereo not shown) [Compound 8] | – | 1.89 | 76.8 µM | 40.6 µM | ~40 µM | > 30% | 18.8 ± 5.34 µM | ~20 µM | – | – | – | – | –
3 | O=c1[nH]c(SCc2ccc3ccccc3c2)nc(-c2ccccc2)c1Cc1c(O)ccc2ccccc12 [Compound 12] | – | 1.38 | 48.8 µM | 35.4 µM | > 150 µM | > 30% | 14.3 ± 6.06 µM | 6.3 µM | low or no synergism | no difference | single-digit micromolar | – | type of interaction with BZN (T. cruzi Y H10 strain [3]; 1/4 ratio): synergistic effect; CI (combinatory index) with BZN (T. cruzi Y H10 strain [3]; [6]): 6.6; CI (combinatory index) with BZN (T. cruzi Y H10 strain [3]; [7]): 13.2; CI (combinatory index) with BZN (T. cruzi Y H10 strain [3]; [8]): 1.02; CI (combinatory index) with BZN (T. cruzi Y H10 strain [3]; [9]): 0.82; CI (combinatory index) with BZN (T. cruzi Y H10 strain [3]; [10]): 1.14; CI (combinatory index) with BZN (T. cruzi Y H10 strain [3]; [11]): 1.48; CI (combinatory index) with BZN (T. cruzi Y H10 strain [3]; [12]): 2.29; type of interaction with BZN (T. cruzi Y H10 strain [3]; ratios 1/8, 1/2 and 1/1): additive effect; type of interaction with BZN (T. cruzi Y H10 strain [3]; ratios lower than 1/8): antagonistic effect
4 | O=C(CSc1nc(-c2ccccc2)c(Cc2c(O)ccc3ccccc23)c(=O)[nH]1)c1ccccc1 [Compound 13] | – | > 2.2 | > 100 µM | 45.1 µM | > 150 µM | > 30% | 18.5 ± 1.97 µM | – | – | – | single-digit micromolar | – | –
5 | CCCCCSc1nc(-c2ccccc2)c(Cc2c(O)ccc3ccccc23)c(=O)[nH]1 [Compound 15] | – | 1.89 | 36.4 µM | 19.4 µM | > 150 µM | – | – | – | – | – | single-digit micromolar | inhibited TcSir2rp1 activity | EC50 (T. cruzi Y H10 strain [1]; U2OS cells infected with T. cruzi, 96 hours incubation): 19.4 µM; IC50 (TcSir2rp1): 32.4 ± 7.88 µM
6 | O=c1[nH]c(N/N=C/c2ccc([N+](=O)[O-])cc2)nc(-c2ccccc2)c1Cc1c(O)ccc2ccccc12 [Compound 17] | – | 2.31 | 19.6 µM | 8.5 µM | ~50 µM | – | – | ~50 µM | synergistic effects | no increase in trypanocidal activity | – | inhibited TcSir2rp1 activity | CI (combinatory index) with BZN (T. cruzi Y H10 strain [3]; [6]): 0.38; CI (combinatory index) with BZN (T. cruzi Y H10 strain [3]; [7]): 0.69; CI (combinatory index) with BZN (T. cruzi Y H10 strain [3]; [8]): 0.73; CI (combinatory index) with BZN (T. cruzi Y H10 strain [3]; [9]): 0.74; CI (combinatory index) with BZN (T. cruzi Y H10 strain [3]; [10]): 1.25; CI (combinatory index) with BZN (T. cruzi Y H10 strain [3]; [11]): 2.45; CI (combinatory index) with BZN (T. cruzi Y H10 strain [3]; [12]): 3.52; trypanocidal activity of SIRTi+BZN compared to SIRTi alone (T. cruzi Y H10 strain [3]): increase in the trypanocidal activity; type of interaction with BZN (T. cruzi Y H10 strain [3]; ratios 1/2, 1, and 2): antagonistic effect; type of interaction with BZN (T. cruzi Y H10 strain [3]; ratios lower than 1/4): tendency towards a synergistic effect; IC50 (TcSir2rp1): 25.5 ± 4.73 µM
7 | CCOC(=O)/C(=C\c1cc(C(=O)c2ccccc2OC)c[nH]1)C(=O)Nc1cccc2ncccc12 [Compound 27] | – | 8.18 | 46.9 µM | 5.73 µM | – | – | – | 10.5 µM | – | – | – | did not show potent inhibitory effect | % of inhibition of TcSir2rp3 deacetylase activity (TcSir2rp3; 5 µM): did not show potent inhibitory effect
8 | CCN1C(=O)/C(=C\c2ccc(-c3ccc(Cl)c(Cl)c3)o2)C(=O)NC1=S [Compound 30] | 42.7 µM | – | – | – | – | > 30% | – | – | – | – | single-digit micromolar | – | IC50 against human SIRT5 (SIRT5): single-digit micromolar; IC50 against human SIRT1 (SIRT1): single-digit micromolar; CC50 at 96 h [2]: > 100 µM
9 | CCCN1C(=O)/C(=C\c2ccc(-c3ccc(Cl)c(Cl)c3)o2)C(=O)NC1=S [Compound 31] | – | – | – | – | – | – | – | – | – | – | – | – | IC50 (TcSir2rp3): 16.3 ± 9.54 µM
10 | C=CCN1C(=O)/C(=C\c2ccc(-c3ccc(Cl)c(Cl)c3)o2)C(=O)NC1=S [Compound 32] | 39.8 µM | – | – | – | – | > 30% | – | – | synergistic effects | not if compared to BZN alone | single-digit micromolar | – | IC50 against human SIRT5 (SIRT5): single-digit micromolar; IC50 against human SIRT1 (SIRT1): single-digit micromolar; CC50 at 96 h [2]: 77 µM; IC50 (TcSir2rp3): 16.4 ± 6.7 µM; type of interaction with BZN (T. cruzi Y H10 strain [3]; all concentration ratios lower than 1/2): synergistic effect; trypanocidal activity of SIRTi+BZN compared to SIRTi alone (T. cruzi Y H10 strain [3]): increased the trypanocidal activity
